Drawing on PubChem BioAssay AID2060486 (Molecular Pharmacology Branch, DTP, NCI, 2025), this text covers viability, T/C and IC50 for 12 compounds.

Values joined by “and” are separate entries in the source; they are usually repeats but may differ in a detail not shown here. Identical values can stand only once.

This experiment deals with IGROV1 complex spheroids (HUVEC, MSC), viability % test/control. Put plainly: Anticancer human tumor IGROV1 cell line growth inhibition [GQUAD].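 For all read-outs here: spheroids exposed to compounds for 7 days before readout.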 The conditions noted are these: for viability, T/C: stronger effect = lower value; for IC50: curve of compound. From the text:
DNA G-quadruplex Stabilizer Agents in Combinations in Complex Spheroids
A high-throughput screen of multi-cell type tumor spheroids was designed to identify active combinations of DNA G-quadruplex stabilizer agents and targeted small molecules. Complex spheroids include a stromal component modeled by human endothelial cells (HUVEC) and fibroblasts modeled by human mesenchymal stem cells (MSCs). The concentration ranges selected for each drug and investigational agent were based upon clinically achievable concentrations if the clinical Cmax of the agent was known.
Compounds. The drugs and investigational agents: pidnarulex (CX-5461; NSC782164), APTO-253 (NSC789042), BRACO-19 (NSC847499), peposertib (NSC802822), ceralasertib (NSC780249), elimusertib (NSC800525), camonsertib (NSC841442), AZD-1390 (NSC803789), olaparib (NSC753686), talazoparib (NSC767125), ART-558 (NSC835418), sotorasib (NSC818433), MRTX-1133 (NSC836407), SN-38 (NSC673596), topotecan (NSC609699), etoposide (NSC141540), doxorubicin (NSC123127), gemcitabine (NSC613327), 5-fluorouracil (NSC19893), paclitaxel (NSC125973), vemurafenib (NSC761431), panobinostat (NSC761190), R-306465 (JNJ-16241199; NSC773264), adavosertib (NSC754352), TP-3654 (NSC805149), carboplatin (NSC241240), KSQ-4279 (NSC840948), and staurosporine (NSC755774) were obtained from the National Cancer Institute (NCI) Developmental Therapeutics Program Chemical Repository (34). The FDA-approved anticancer drug set is available from the NCI Developmental Therapeutics Program. […] The stock solutions were prepared in dimethyl sulfoxide (DMSO, Sigma-Aldrich, St. Louis, MO, cat. D2650) at 800-fold the tested concentration and stored at -70 degrees C prior to their use. All drugs and investigational agents were tested over a range starting from a high concentration at or near the clinical Cmax and decreasing in half-log increments. If the clinical Cmax for an agent had not been determined, the highest concentration tested was 10 microM.
2.3 Cell Culture. All cells were maintained in an incubator at 37 degrees C and 5% CO2 with 95% humidity. The PDC lines were cultured according to standard operating procedures established by the NCI PDMR. All PDCs were thawed and cultured in Matrigel-coated flasks prepared with a working solution of 1X Ham's F-12 nutrient mix, without supplementation (Invitrogen, cat. 11765054), 100 U/mL penicillin-streptomycin (Invitrogen, cat. 15140122), and 2.5% Matrigel (Corning Inc., cat. 354248) for the first three passages. The 857933-349-R-J2-PDC line was cultured in 6C/Colon 1B media, which includes advanced DMEM/F-12 (Thermo Fisher Scientific, cat. 12634028), 10 mM HEPES (Thermo Fisher Scientific, cat. 15630080), 1X GlutaMAX supplement (Thermo Fisher Scientific, cat. 35050061), 0.1 mg/mL primocin (InvivoGen, cat. ant-pm-2), 10% defined fetal bovine serum, heat inactivated (HyClone Laboratories Inc., cat. SH30070.03HI), 50% L-WRN conditioned media (ATCC, cat. CRL-3276), 1.25 mM N-Acetyl-L-cysteine (Sigma-Aldrich, cat. A9165), 10 mM nicotinamide (Sigma-Aldrich, cat. N0636), 1X B-27 supplement (Thermo Fisher Scientific, cat. 17504044), 1X N-2 supplement (Thermo Fisher Scientific, cat. 17502048), 10 microM Y-27632 dihydrochloride (Tocris Bioscience, cat. 1254), and 50 ng/mL human EGF recombinant protein (Thermo Fisher Scientific, cat. PHG0311). The 485176-168-R4-J1-PDC line was cultured in Panc media, which includes all 6C/Colon 1B media components plus 100 ng/mL human FGF-10 (Thermo Fisher Scientific, cat. 100-26), 500 nM SB-431542 (Selleckchem, cat. S1067), and gastrin (Tocris, cat. 3006).
[…]

In the case of `C#Cc1c(F)ccc2cc(O)cc(-c3ncc4c(N5CC6CCC(C5)N6)nc(OCC56CCCN5CC(F)C6)nc4c3F)c12` (centres undefined), the IC50 was > 10000 nM and 9690 nM. The viability, T/C (compound 0.0316 µM) is 88.9% and 93.9% and 107%. Also, the viability, T/C (compound 0.1 µM) was 86.7% and 79.6% and 89.4%. Moreover, the viability, T/C (compound 0.316 µM) was 81.5% and 89.6% and 96.4%. For the same compound, the viability, T/C (compound 1 µM) was 87.2% and 88.1% and 95.8%. The viability, T/C (compound 3.16 µM) is 82% and 85% and 88.4%. Besides, the viability, T/C (compound 10 µM) is 51.3% and 49% and 64.6%.

With `C=CC(=O)N1CCN(c2nc(=O)n(-c3c(C)ccnc3C(C)C)c3nc(-c4c(O)cccc4F)c(F)cc23)C(C)C1` (centres undefined), the IC50 was > 10000 nM. Also, the viability, T/C (compound 0.0316 µM) was 102% and 105% and 117%. Also, the viability, T/C (compound 0.1 µM) is 95.2% and 95.3% and 106%. Moreover, the viability, T/C (compound 0.316 µM) was 113% and 105% and 110%. The viability, T/C (compound 1 µM) was 93% and 104% and 122%. The viability, T/C (compound 3.16 µM) is 79.5% and 98.5% and 104%. The viability, T/C (compound 10 µM) was 82.3% and 101% and 92%.

`C=CCn1c(=O)c2cnc(Nc3ccc(N4CCN(C)CC4)cc3)nc2n1-c1cccc(C(C)(C)O)n1`: the IC50 is 141 nM and 153 nM and 146 nM. The viability, T/C (compound 0.0316 µM) is 104% and 89% and 99.3%. Further, the viability, T/C (compound 0.1 µM) is 65.7% and 69.2% and 68.7%. Moreover, the viability, T/C (compound 0.316 µM) was 13.4% and 17.4% and 11.9%. In addition, the viability, T/C (compound 1 µM) was 3.03% and 3.13% and 2.69%. Moreover, the viability, T/C (compound 3.16 µM) is 2.56% and 2.47% and 2.43%. Further, the viability, T/C (compound 10 µM) is 1.88% and 1.86% and 2.35%.

In the case of `CC(=O)O[C@H]1C(=O)[C@@]2(C)[C@H]([C@H](OC(=O)c3ccccc3)[C@]3(O)C[C@H](OC(=O)[C@H](O)[C@@H](NC(=O)c4ccccc4)c4ccccc4)C(C)=C1C3(C)C)[C@]1(OC(C)=O)CO[C@@H]1C[C@@H]2O`, the half-maximal inhibitory concentration (IC50) was < 31.6 nM. Also, the viability, T/C (compound 0.0316 µM) was 5.95% and 6.39% and 7.02%. Further, the viability, T/C (compound 0.1 µM) is 6.41% and 7.03% and 6.33%. In addition, the viability, T/C (compound 0.316 µM) is 5.74% and 6.73% and 6.26%. For the same compound, where the note is “compound 1 µM”, the viability, T/C was 5.25% and 5.94% and 5.15%. Besides, the viability, T/C (compound 3.16 µM) was 5.64% and 4.86% and 4.9%. In addition, the viability, T/C (compound 10 µM) is 4.25% and 4.95% and 4.52%.

Take `CC(C)(O)C1CCC(Nc2ccc3ncc(-c4cccc(C(F)(F)F)c4)n3n2)CC1` (centres undefined): the concentration for half-maximal inhibition (IC50) was 1940 nM and 2140 nM and 1840 nM. For the same compound, the viability, T/C (compound 0.0316 µM) was 109% and 102% and 93.8%. The viability, T/C (compound 0.1 µM) was 101% and 72.6% and 98.9%. Moreover, the viability, T/C (compound 0.316 µM) is 104% and 94.5% and 96.9%. The viability, T/C (compound 1 µM) was 78.5% and 77.2% and 75.5%. For the same compound, under “compound 3.16 µM”, the viability, T/C was 27% and 35.3% and 27.6%. Further, the viability, T/C (compound 10 µM) is 31.4% and 36.7% and 24.7%.

On to `CCCS(=O)(=O)Nc1ccc(F)c(C(=O)c2c[nH]c3ncc(-c4ccc(Cl)cc4)cc23)c1F`, for which the concentration for half-maximal inhibition (IC50) is 4800 nM and 4380 nM and 3780 nM. Further, the viability, T/C (compound 0.0316 µM) is 105% (2×) and 108%. Besides, the viability, T/C (compound 0.1 µM) is 96.1% and 96.3% and 95.1%. The viability, T/C (compound 0.316 µM) is 106% and 108% and 97.5%. Moreover, the viability, T/C (compound 1 µM) was 103% and 80.5% and 96.6%. In addition, the viability, T/C (compound 3.16 µM) was 66.4% and 67.2% and 56.1%. For the same compound, where the note is “compound 10 µM”, the viability, T/C is 21.1% and 13.8% and 16.5%.

As to `COc1cc(C2c3cc4c(cc3C(OC3OC5COC(C)OC5C(O)C3O)C3COC(=O)C23)OCO4)cc(OC)c1O` (centres undefined), the IC50 was 99.8 nM and 115 nM and 128 nM. Further, the viability, T/C (compound 0.0316 µM) is 87.7% and 74.7% and 87.1%. Also, for the setting “compound 0.1 µM”, the viability, T/C is 50.5% and 54.1% and 56.5%. The viability, T/C (compound 0.316 µM) is 23.5% and 21.2% and 26.5%. Moreover, for the setting “compound 1 µM”, the viability, T/C is 14% and 12.6% and 12.7%. Moreover, the viability, T/C (compound 3.16 µM) was 10.9% and 11.7% and 9.02%. Besides, under “compound 10 µM”, the viability, T/C is 5.01% and 6.17% and 5.68%.

For the compound `COc1cccc2c1C(=O)c1c(O)c3c(c(O)c1C2=O)CC(O)(C(=O)CO)CC3OC1CC(N)C(O)C(C)O1` (centres undefined), the IC50 was 47.2 nM and 45.8 nM and 37.9 nM. Moreover, the viability, T/C (compound 0.0316 µM) is 67.5% and 64.3% and 55.3%. Further, the viability, T/C (compound 0.1 µM) is 16.6% and 19.5% and 22.7%. Also, the viability, T/C (compound 0.316 µM) was 8.67% and 8.83% and 8.72%. Also, for the setting “compound 1 µM”, the viability, T/C was 3.86% and 4.47% and 4.45%. The viability, T/C (compound 3.16 µM) was 0.12% and 0.15% and 0.11%. The viability, T/C (compound 10 µM) was 0.59% and 1.33% and 0.9%.

For the compound `Cc1cccc(N(C)C(=O)C2C(O)CCN2c2nc(C)cc(C(F)(F)F)c2C#N)c1` (centres undefined), the IC50 is > 10000 nM. The viability, T/C (compound 0.0316 µM) was 85.7% and 108% and 109%. The viability, T/C (compound 0.1 µM) is 86.3% and 92.3% and 87.3%. In addition, the viability, T/C (compound 0.316 µM) is 100% (2×) and 103%. In addition, the viability, T/C (compound 1 µM) is 87.2% and 85.6% and 91%. The viability, T/C (compound 3.16 µM) was 89.7% and 99.7% and 89%. Also, the viability, T/C (compound 10 µM) is 88.3% and 93.8% and 78%.

Regarding `Nc1ccn(C2OC(CO)C(O)C2(F)F)c(=O)n1` (centres undefined), the IC50 was < 31.6 nM. Further, the viability, T/C (compound 0.0316 µM) was 12.1% and 11.8% and 8.43%. Also, the viability, T/C (compound 0.1 µM) was 5.96% and 5.24% and 5.38%. For the same compound, where the note is “compound 0.316 µM”, the viability, T/C is 5.74% and 5.8% and 4.72%. Also, for the setting “compound 1 µM”, the viability, T/C is 6.33% and 6.36% and 4.79%. Besides, the viability, T/C (compound 3.16 µM) was 6.11% and 5.6% and 4.26%. The viability, T/C (compound 10 µM) was 5.62% and 5.26% and 4.2%.

As for `O=C(NO)c1cnc(N2CCN(S(=O)(=O)c3ccc4ccccc4c3)CC2)nc1`, the 50% inhibitory concentration (IC50) is 48.1 nM and 61 nM and 77.2 nM. Further, for the setting “compound 0.0316 µM”, the viability, T/C is 65% and 73.3% and 81.7%. Also, for the setting “compound 0.1 µM”, the viability, T/C is 24% and 32.4% and 40.8%. The viability, T/C (compound 0.316 µM) was 4.46% and 3.52% and 3.88%. In addition, the viability, T/C (compound 1 µM) is 0.24% and 0.3% and 0.34%. Besides, the viability, T/C (compound 3.16 µM) is 0.04% (2×) and 0.15%. Besides, the viability, T/C (compound 10 µM) was 0.06% and 0.13% and 0.05%.

With `O=c1[nH]cc(F)c(=O)[nH]1`, the IC50 is 5600 nM and 6490 nM and 5820 nM. Moreover, the viability, T/C (compound 0.0316 µM) was 109% and 96.5% and 111%. For the same compound, the viability, T/C (compound 0.1 µM) was 86.7% and 99.3% and 94.8%. Under “compound 0.316 µM”, the viability, T/C was 99.8% and 104% and 106%. Besides, the viability, T/C (compound 1 µM) is 95.4% and 96.4% and 96.5%. Besides, the viability, T/C (compound 3.16 µM) is 69.2% and 93.7% and 84.7%. The viability, T/C (compound 10 µM) is 30.4% and 23.8% and 19.9%.

The term viability, T/C denotes the result in the treated group divided by that in the control group, in per cent. As a reminder, the IC50 is the concentration that gives 50% inhibition.
